The record followed here is US10336723B2, “Inhibitors of TrkA kinase” (GVK BIOSCIENCES PRIVATE LIMITED, priority 2015, dated 2019).

The target in this assay is T1, human TrkA (Homo sapiens, UniProt P04629).
T1 construct: expressed in transfected cells; host or cells: AD293 cells
T1 sequence (P04629 33-796): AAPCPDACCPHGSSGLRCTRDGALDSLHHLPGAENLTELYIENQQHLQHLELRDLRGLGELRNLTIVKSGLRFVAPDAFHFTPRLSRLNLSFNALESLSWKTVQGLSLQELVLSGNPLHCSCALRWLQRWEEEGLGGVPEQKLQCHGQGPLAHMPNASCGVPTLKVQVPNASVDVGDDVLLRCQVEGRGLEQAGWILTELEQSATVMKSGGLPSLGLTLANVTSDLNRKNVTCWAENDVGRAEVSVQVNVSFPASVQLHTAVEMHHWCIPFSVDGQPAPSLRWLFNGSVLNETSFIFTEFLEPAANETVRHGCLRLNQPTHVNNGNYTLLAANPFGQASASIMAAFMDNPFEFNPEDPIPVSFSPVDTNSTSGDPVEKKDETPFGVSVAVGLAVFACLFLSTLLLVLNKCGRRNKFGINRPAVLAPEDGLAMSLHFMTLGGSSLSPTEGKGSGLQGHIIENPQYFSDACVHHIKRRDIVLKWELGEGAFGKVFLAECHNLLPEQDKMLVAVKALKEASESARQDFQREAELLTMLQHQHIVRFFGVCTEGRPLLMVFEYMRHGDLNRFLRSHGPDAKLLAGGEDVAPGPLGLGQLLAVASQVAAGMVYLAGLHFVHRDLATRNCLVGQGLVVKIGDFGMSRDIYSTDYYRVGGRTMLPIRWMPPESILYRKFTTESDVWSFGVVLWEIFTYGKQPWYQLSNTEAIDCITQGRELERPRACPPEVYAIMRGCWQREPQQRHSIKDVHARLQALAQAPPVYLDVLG
As to the kind of experiment: TrkA Cell Based Phosphorylation Assay. The settings on record: Recombinant AD293 cells overexpressing human TrkA; TrkA Y490 phosphorylation upon 6 nM NGF stimulation; Phospho-TrkA (Tyr490) sandwich ELISA. As to the method: Recombinant AD293 cells overexpressing human TrkA were used to determine TrkA Y490 phosphorylation upon NGF stimulation. 25 k cells plated in serum free DMEM medium in a 96 well plate were serum starved for 2 hours at 37° C. in 5% CO2 incubator. Test compounds were added to the plate at a final concentration of 2.5% DMSO and incubated for 20 min at 37° C. 6 nM NGF was added and incubated for 5 min at 37° C. The plate was immediately centrifuged at 2000 rpm for 1 min and media removed. Lysis buffer containing 1% NP-40 Substitute, 20 mM Tris (pH 8.0), 137 mM NaCl final concentrations was added, mixed for one minute and kept on ice for 15 min with shaking every 5 minutes. 100 ul of the cell lysate was added to the PathScan® Phospho-TrkA (Tyr490) Sandwich ELISA plate with precoated wells and ELISA performed according to the manufacturer's instructions for color development. IC50 was generated in Graph Pad Prism software in non linear regression format.
(In an ELISA, binding on a coated surface is turned into a signal by an enzyme label.)
The term IC50 denotes the point on the concentration scale where inhibition reaches its midpoint. `COCCN1C[C@@H](NC(=O)Nc2cc3c(nc2-c2ccccc2)CCCC3)[C@H](c2ccccc2)C1` [Example 125, 1-((3S,4R)-1-(2-Methoxyethyl)-4-phenylpyrrolidin-3-yl)-3-(2-phenyl-5,6,7,8-tetrahydroquinolin-3-yl)urea]: the IC50 is less than 100 nM.

As for `COCCN1C[C@@H](NC(=O)Nc2c(C(C)(C)C)nc(-c3cnn(C)c3)c3ccccc23)[C@H](c2ccccc2)C1` [Example 165, 1-(3-(tert-Butyl)-1-(1-methyl-1H-pyrazol-4-yl)isoquinolin-4-yl)-3-((3S,4R)-1-(2-methoxyethyl)-4-phenylpyrrolidin-3-yl)urea], the half-maximal inhibitory concentration (IC50) was 100 to 1000 nM.

For `COCCN1C[C@@H](NC(=O)Nc2cccc3oc4ccccc4c23)[C@H](c2ccccc2)C1` [Example 104, 1-(Dibenzo[b,d]furan-1-yl)-3-((3S,4R)-1-(2-methoxyethyl)-4-phenylpyrrolidin-3-yl)urea], the IC50 lay within 100 to 1000 nM.

On to `COCCN1C[C@@H](NC(=O)Nc2cc3cc(OC)c(OC)cc3nc2-c2ccccc2)[C@H](c2cccc(F)c2)C1` [Example 74, 1-(6,7-Dimethoxy-2-phenylquinolin-3-yl)-3-((3S,4R)-4-(3-fluorophenyl)-1-(2-methoxyethyl)pyrrolidin-3-yl)urea], for which the IC50 is less than 100 nM.

As for `COCCN1C[C@@H](NC(=O)Nc2c(-c3ccccc3)ncc3ccccc23)[C@H](c2ccccc2)C1` [Example 149, 1-((3S,4R)-1-(2-Methoxyethyl)-4-phenylpyrrolidin-3-yl)-3-(3-phenylisoquinolin-4-yl)urea], the IC50 was less than 100 nM.

As for `COCCN1C[C@@H](NC(=O)Nc2cc3c(OC)cccc3nc2-c2ccccc2)[C@H](c2ccccc2)C1` [Example 16, 1-(5-Methoxy-2-phenylquinolin-3-yl)-3-((3S,4R)-1-(2-methoxyethyl)-4-phenylpyrrolidin-3-yl)urea], the IC50 was in the range of 100 to 1000 nM.

`COCCN1C[C@@H](NC(=O)Nc2cc3ccccc3nc2-c2ccncc2)[C@H](c2ccccc2)C1` [Example 33, 1-((3S,4R)-1-(2-Methoxyethyl)-4-phenylpyrrolidin-3-yl)-3-(2-(pyridin-4-yl)quinolin-3-yl)urea]: the concentration for half-maximal inhibition (IC50) was more than 1000 nM.

For the molecule `COCCN1C[C@@H](NC(=O)Nc2c(-c3ccccc3)nc(N3CCOCC3)c3ccccc23)[C@H](c2ccccc2)C1` [Example 172, 1-((3S,4R)-1-(2-Methoxyethyl)-4-phenylpyrrolidin-3-yl)-3-(1-morpholino-3-phenylisoquinolin-4-yl)urea], the IC50 is less than 100 nM.

As to `COCCN1C[C@@H](NC(=O)Nc2cc3ccccc3nc2-c2ccccc2)[C@H](c2ccccc2)C1` [Example 2, 1-((3S,4R)-1-(2-methoxyethyl)-4-phenylpyrrolidin-3-yl)-3-(2-phenylquinolin-3-yl)urea], the IC50 is less than 100 nM.

As for `COCCN1C[C@@H](NC(=O)Nc2c(-c3ccccc3)nc(C(=O)O)c3cc(F)ccc23)[C@H](c2ccccc2)C1` [Example 190, 7-Fluoro-4-(3-(1-(2-methoxyethyl)-4-phenylpyrrolidin-3-yl)ureido)-3-phenylisoquinoline-1-carboxylic acid], the half-inhibitory concentration (IC50) is 100 to 1000 nM.
